PubChem BioAssay (NCI)
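Where inhibition never reached the appropriate level, the endpoint shown equals the highest concentration tested. Otherwise, values were interpolated linearly from a five-concentration, 48-hour dose response in 96-well plates. TGI is the concentration that stops growth completely.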

Legend:
Assay in all cases: DTP human tumour cell line panel, 48 h
LOX IMVI melanoma = system: LOX IMVI melanoma
OVCAR-5 ovarian = system: OVCAR-5 ovarian
KM12 colon = system: KM12 colon
HCT-116 colon = system: HCT-116 colon
DMS 114 small cell lung = system: DMS 114 small cell lung
IGROV1 ovarian = system: IGROV1 ovarian
SK-MEL-28 melanoma = system: SK-MEL-28 melanoma
HCT-15 colon = system: HCT-15 colon
RXF 393 renal = system: RXF 393 renal
M19-MEL melanoma = system: M19-MEL melanoma
OVCAR-3 ovarian = system: OVCAR-3 ovarian
NCI-H226 lung = system: NCI-H226 lung
SN12C renal = system: SN12C renal
ACHN renal = system: ACHN renal
TK-10 renal = system: TK-10 renal
XF 498 CNS = system: XF 498 CNS
UACC-62 melanoma = system: UACC-62 melanoma
MOLT-4 leukemia = system: MOLT-4 leukemia
HL-60(TB) leukemia = system: HL-60(TB) leukemia
NCI-H23 lung = system: NCI-H23 lung
SF-268 CNS = system: SF-268 CNS
SR leukemia = system: SR leukemia
HOP-62 NSCLC = system: HOP-62 NSCLC
RPMI-8226 leukemia = system: RPMI-8226 leukemia
SF-295 CNS = system: SF-295 CNS
DMS 273 small cell lung = system: DMS 273 small cell lung
KM20L2 colon = system: KM20L2 colon
SK-MEL-2 melanoma = system: SK-MEL-2 melanoma
NCI-H460 lung = system: NCI-H460 lung
SNB-19 CNS = system: SNB-19 CNS
SW-620 colon = system: SW-620 colon
M14 melanoma = system: M14 melanoma
UO-31 renal = system: UO-31 renal
OVCAR-8 ovarian = system: OVCAR-8 ovarian
NCI-H522 lung = system: NCI-H522 lung
786-0 renal = system: 786-0 renal
SF-539 CNS = system: SF-539 CNS
LXFL 529 NSCLC = system: LXFL 529 NSCLC
HT29 colon = system: HT29 colon
SK-MEL-5 melanoma = system: SK-MEL-5 melanoma
CCRF-CEM leukemia = system: CCRF-CEM leukemia
U251 CNS = system: U251 CNS
MALME-3M melanoma = system: MALME-3M melanoma
A549 NSCLC = system: A549 NSCLC
K-562 leukemia = system: K-562 leukemia
SNB-75 CNS = system: SNB-75 CNS
COLO 205 colon = system: COLO 205 colon
EKVX NSCLC = system: EKVX NSCLC
OVCAR-4 ovarian = system: OVCAR-4 ovarian

Measured: TGI

Nc1nc(-c2ccco2)cc(-c2ccco2)n1
> 100 µM: all assays above
